Source: article PMC3091868, “A Novel Structural Framework for α1A/D-Adrenoceptor Selective Antagonists Identified Using Subtype Selective Pharmacophores” (PLoS ONE, 2011)
Like-named read-outs stand apart in the source and are kept apart here.

Tests used:
α1B-AR = target: T1, α1B-AR (Mesocricetus auratus, UniProt P18841); experiment: [3H]Prazosin competition/saturation binding on COS-1 membranes expressing α1B-AR; design: species or system rodent
T1 construct: expressed in transfected cells; host or cells: COS-1
T1 sequence (P18841 1-515): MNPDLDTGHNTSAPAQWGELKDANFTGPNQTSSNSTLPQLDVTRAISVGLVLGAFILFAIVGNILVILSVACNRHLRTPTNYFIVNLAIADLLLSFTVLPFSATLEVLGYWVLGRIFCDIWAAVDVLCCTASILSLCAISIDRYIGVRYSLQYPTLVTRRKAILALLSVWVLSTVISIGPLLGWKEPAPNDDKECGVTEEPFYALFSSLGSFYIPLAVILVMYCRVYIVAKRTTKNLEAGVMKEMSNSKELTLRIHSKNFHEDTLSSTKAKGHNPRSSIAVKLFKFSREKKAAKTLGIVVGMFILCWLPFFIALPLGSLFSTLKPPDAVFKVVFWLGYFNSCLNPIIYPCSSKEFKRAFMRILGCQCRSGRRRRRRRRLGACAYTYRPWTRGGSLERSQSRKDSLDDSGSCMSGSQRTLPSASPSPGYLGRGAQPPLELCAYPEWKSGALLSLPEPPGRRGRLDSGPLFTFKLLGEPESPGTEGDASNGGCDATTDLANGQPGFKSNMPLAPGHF
Protocol: (§1) COS-1 cells (American Type Culture Collection, Manassas, VA) were cultured in Dulbecco's modified Eagle's medium (DMEM) supplemented with 10% (v/v) heat inactivated fetal bovine serum (FBS), 100 µg ml^−1 penicillin and 100 µg ml^−1 streptomycin. Cells were maintained and passaged upon reaching confluence by standard cell culture techniques. pMT4 plasmids containing rodent α1-AR (a kind gift from Prof R Graham, Victor Chang Cardiac Research Institute, Australia) were used to transfect cells. Transient expression in COS-1 cells was accomplished using two techniques; the diethylaminoethane-dextran (DEAE-dextran) and Lipofectamine 2000 (Invitrogen, Carlsbad, CA, USA) methods. Briefly, the DEAE-dextran method involved washing of cells with phosphate buffered saline (PBS), followed by the addition of the DNA mixture (12–25 µg/4×10^6 cells) in DEAE-dextran (10 mg ml^−1) to cells at 60–80% confluency. Following a 3 h incubation, a PBS wash with 10% DMSO was used to shock the cells. Cells were harvested 72 h post transfection. For the Lipofectamine 2000 method, cells were incubated for 12 h with Opti-MEM (GIBCO BRL, Gaithersburg, MD, USA) containing Lipofectamine 2000.
(§2) Membranes were prepared as described previously. Briefly, COS-1 cells were transiently transfected using the DEAE-dextran method. […] Protein concentration was determined using Bradford reagent (Sigma, St Louis, MO, USA).
(§3) For all binding experiments, the reaction mixture was incubated for 1 h at room temperature, stopped by the addition of 4°C PBS and filtered with a Brandel cell harvester (Gaithersburg, MD, USA) on GF/C filters. Nonspecific binding was defined as binding in the presence of 100 µM phentolamine hydrochloride.
(§4) Nonlinear regression analysis of saturation and competition binding assay data was performed using the […] curve fitting program GraphPad Prism (San Diego, CA, USA). […] The competitive binding data for each ligand was tested for both one and two -site binding.

α1D-AR [1] = target: T2, α1D-AR (Rattus norvegicus, UniProt P23944); experiment: [3H]Prazosin competition/saturation binding on COS-1 membranes expressing α1D-AR; design: species or system rodent; conditions: [3H]Prazosin 200 pM
T2 construct: expressed in transfected cells; host or cells: COS-1
T2 sequence (P23944 1-561): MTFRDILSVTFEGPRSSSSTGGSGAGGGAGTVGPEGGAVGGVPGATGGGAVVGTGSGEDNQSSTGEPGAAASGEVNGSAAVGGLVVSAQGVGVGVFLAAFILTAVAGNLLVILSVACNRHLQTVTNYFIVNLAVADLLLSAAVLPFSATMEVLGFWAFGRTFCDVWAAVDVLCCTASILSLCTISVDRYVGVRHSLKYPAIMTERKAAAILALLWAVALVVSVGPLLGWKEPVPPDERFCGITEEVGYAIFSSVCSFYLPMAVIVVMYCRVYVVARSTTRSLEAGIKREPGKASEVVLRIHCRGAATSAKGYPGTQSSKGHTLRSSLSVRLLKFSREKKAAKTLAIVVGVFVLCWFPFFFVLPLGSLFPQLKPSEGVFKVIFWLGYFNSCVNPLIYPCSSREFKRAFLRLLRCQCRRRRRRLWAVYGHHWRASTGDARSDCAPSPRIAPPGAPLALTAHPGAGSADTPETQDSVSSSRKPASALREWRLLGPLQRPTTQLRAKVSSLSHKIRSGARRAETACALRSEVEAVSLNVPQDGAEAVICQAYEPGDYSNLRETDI
Protocol: as §1, §2, §3, §4

α1A-AR [2] = target: T3, α1A-AR (Rattus norvegicus, UniProt P43140); experiment: [3H]Prazosin competition/saturation binding on COS-1 membranes expressing α1A-AR; design: species or system rodent; conditions: for Ki: [3H]Prazosin 200 pM, COS-1 membranes
T3 construct: expressed in transfected cells; host or cells: COS-1
T3 sequence (P43140 1-466): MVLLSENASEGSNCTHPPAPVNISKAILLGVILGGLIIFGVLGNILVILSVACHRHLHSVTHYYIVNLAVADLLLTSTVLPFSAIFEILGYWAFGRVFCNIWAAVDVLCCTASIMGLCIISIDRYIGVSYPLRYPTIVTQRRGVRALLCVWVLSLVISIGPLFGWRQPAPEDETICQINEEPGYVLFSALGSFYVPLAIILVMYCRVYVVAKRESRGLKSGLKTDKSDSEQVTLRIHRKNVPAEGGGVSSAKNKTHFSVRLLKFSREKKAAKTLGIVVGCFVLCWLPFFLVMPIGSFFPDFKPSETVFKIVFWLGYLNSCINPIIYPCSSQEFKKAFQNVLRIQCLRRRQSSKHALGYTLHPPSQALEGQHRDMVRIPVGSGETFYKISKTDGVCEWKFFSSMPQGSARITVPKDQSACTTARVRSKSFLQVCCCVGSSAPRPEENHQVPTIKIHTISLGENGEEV
Protocol: as §1, §2, §3, §4

α1A-AR [3] = target: T3, α1A-AR; experiment: Phosphatidylinositol hydrolysis (IP accumulation) assay in COS-1 cells expressing α1A-AR; type: cell-based, rodent; conditions: for IC50: 20 min compound, then 10 µM (-)-norepinephrine 30 min, COS-1 cells, read-out: pIC50, inhibition of norepinephrine induced IP accumulation at α1A-AR (converted)
Protocol: as §1
Accumulation of [^3H] inositol phosphates (IPs) was determined as described previously. Briefly, COS-1 cells were transiently transfected with α1A, α1B and α1D - AR pMT4 plasmids using the Lipofectamine method. 24 h after transfection, cells were seeded into 96 well plates and labelled overnight with 20 µCi ml^−1 [^3H]myo-inositol in inositol free DMEM supplemented with 5% charcoal stripped FBS. Cells were washed twice with inositol free DMEM, and incubated in inositol free DMEM for 2 h at 37°C. Cells were treated for 20 minutes with LiCl (20 mM) and propanolol (20 µM) in the presence or absence of tested compounds. Agonists were then added for 30 min, and the reaction was terminated by addition of 0.4 M formic acid. Cells were lysed by freeze thawing twice and were applied to AG 1-X8 columns. Total IPs were eluted with 1 M ammonium formate in 0.1 M formic acid. 200 µL of eluted sample was diluted with 1 mL reverse osmosis water and 5 mL Ultimaflow scintillation fluid (Perkin Elmer), and were counted in a liquid scintillation counter.
Compounds were administered alone (100 µM) or prior to the addition of 10 µM […], to screen for agonist or antagonist activity respectively.
Figure 2 Inhibition of norepinephrine induced inositol phosphate (IP) accumulation at α1A- AR. α1A-AR transfected cells labelled overnight with [^3H]- myo-inositol were treated with indicated concentrations (300 µM – 0.1 µM) of test compounds, 1 (▪), 2 (▵), and 11 (○), for 20 min. This was followed by a 30 min. stimulation with 10 µM (-)- norepinephrine, following which total IP accumulation was determined. Data was normalized against basal COS-1 cell IP production and expressed as a percentage of the (-)-norepinephrine-stimulated maximal IP response of that receptor subtype. The data represented the mean ± SE of a single experiment (n = 4–5), performed in triplicate.
Figure 3 Inositol phosphate (IP) accumulation in the presence of norepinephrine and compound 8 at the α1A- adrenoceptor (AR). α1A-AR transfected cells were labelled with [^3H]- myo-inositol. Following a 20 min. treatment with lithium chloride (20 mM) and propanolol (20 µM) the cells were stimulated with the indicated concentrations (300 µM − 0.1 µM) of (-) norepinephrine (•) or compound 8 (▪) for 30 min. Total inositol phosphate (IP) accumulation was determined as described under “Materials and Methods”. Data was normalized against basal COS-1 cell IP production and expressed as a percentage of the (-)-norepinephrine-stimulated maximal IP response. The data represents the mean ± SE of three separate experiments (n = 3), performed in duplicate or triplicate.

α1D-AR [4] = target: T2, α1D-AR; experiment: Phosphatidylinositol hydrolysis (IP accumulation) assay in COS-1 cells expressing α1D-AR; type: cell-based, rodent; conditions: 100 µM compound alone, agonist screen, n = 3
Protocol: as §1, with “For the Lipofectamine 2000 method, cells were incubated for 12 h with Opti-MEM (GIBCO BRL, Gaithersburg, MD, USA) containing Lipofectamine 2000.” left out
Accumulation of [^3H] inositol phosphates (IPs) was determined as described previously. […] 200 µL of eluted sample was diluted with 1 mL reverse osmosis water and 5 mL Ultimaflow scintillation fluid (Perkin Elmer), and were counted in a liquid scintillation counter. […]

[5] = [3H]Prazosin 200 pM, COS-1 membranes, antilog of mean pKi, Cheng-Prusoff, read-out: Ki α1B-AR
[6] = [3H]Prazosin 200 pM, COS-1 membranes, pKi = -Log Ki, read-out: pKi α1B-AR (converted)
[7] = antilog of mean pKi, Cheng-Prusoff, read-out: Ki α1D-AR
[8] = pKi = -Log Ki, read-out: pKi α1D-AR (converted)
[9] = antilog of mean pKi, Cheng-Prusoff, read-out: Ki α1A-AR
[10] = pKi = -Log Ki, read-out: pKi α1A-AR (converted)

Row | Structure (SMILES) | Ki (α1B-AR; [5]) | Ki (α1B-AR; [6]) | Ki (α1D-AR [1]; [7]) | Ki (α1D-AR [1]; [8]) | Ki (α1A-AR [2]; [9]) | Ki (α1A-AR [2]; [10]) | selectivity for α1A-AR over α1B-AR (α1A-AR [2]; from binding affinities) | IC50 (α1A-AR [3]) | selectivity for α1A-AR over α1D-AR (α1A-AR [2]; from binding affinities) | Ki (α1B-AR) | Ki (α1D-AR [1]; Ki α1D-AR, antilog of mean pKi, Cheng-Prusoff) | Ki (α1A-AR [2]; Ki α1A-AR, antilog of mean pKi, Cheng-Prusoff) | IP production, compound alone, compared to control, α1D-AR (α1D-AR [4]) | IP production, compound alone, compared to control, α1A-AR (α1A-AR [3]; 100 µM compound alone, agonist screen, n = 3) | Maximal IP production, % of the (-) norepinephrine control (α1A-AR [3]; COS-1 cells expressing α1A-AR) | EC50 (α1A-AR [3]; COS-1 cells expressing α1A-AR, 30 min, n = 3, read-out: pEC50, increase in intracellular IP at α1A-AR (converted))
1 | CCN(Cc1ccccc1)CC(O)c1cccc(Cl)c1 (centres unmarked) [Compound 3] | 24.4 µM | 9.55 µM | 8.35 µM | 7.76 µM | 15.1 µM | 12.6 µM |  |  |  |  |  |  |  |  |  | 
2 | COc1cc2c(cc1OC)C1CC(C)=C(c3ccccc3)CN1CC2 (centres unmarked) [Compound 11] | 11.8 µM | 11 µM | 1.6 µM | 1.51 µM | 2 µM | 1.78 µM | 7 fold | 13.2 µM |  |  |  |  |  |  |  | 
3 | COc1cccc(C=CCN2CCN(c3cccc(C(F)(F)F)c3)CC2)c1 [Compound 2] | 4.59 µM |  | 18.8 µM | 10.5 µM | 0.49 µM |  | 10 fold | 17 µM | 38 fold |  |  |  |  |  |  | 
4 | Cc1ccc(C)c(N2CCN(CC(O)COC(C)(C)C)CC2)c1 (centres unmarked) [Compound 1] | 1.42 µM |  | 0.83 µM | 0.794 µM | 1.17 µM |  |  | 25.1 µM |  | < 2 µM | < 2 µM | < 2 µM |  |  |  | 
5 | CCCCN(Cc1ccc(N(CC)CC)cc1)CC(O)c1ccc(Cl)cc1 (centres unmarked) [Compound 12] | > 100 µM | > 100 µM | 62.4 µM | 32.4 µM | 45.5 µM | 30.9 µM |  |  |  |  |  |  |  |  |  | 
6 | CCCCCCCCN(CCCCCCCC)CC(O)c1ccccc1Cl (centres unmarked) [Compound 8] | > 100 µM | > 100 µM | 48.7 µM |  | 45.9 µM | 41.7 µM |  |  |  |  |  |  | distinct trend of increased IP production | distinct trend of increased IP production | approximately 30% | 5.5 µM
7 | CN(C)c1ccc(CN2CCCN(Cc3ccc(N(C)C)cc3)C2c2cc(Cl)ccc2O)cc1 [Compound 9] | > 100 µM | > 100 µM | 36.1 µM | 24.5 µM | 24.5 µM | 23.4 µM |  |  |  |  |  |  |  |  |  | 
